In the test the target is T1, human CA-II (Homo sapiens, UniProt P00918).
T1 construct: purchased Sigma-Aldrich C6165
The experiment in a line: Carbonic Anhydrase-II (CA-II) Fluorimetric Assay-IC50 Determination. It counts as biochemical. The settings on record: for inhibition at 0.01 µM: at 10 nM (c7); for inhibition at 0.01 µM / inhibition at 0.1 µM: read-out: CA-II % inhibition at concentration of column 7; for inhibition at 0.1 µM: at 100 nM (c7). As to the method: Carbonic Anhydrase-II (CA-II) Fluorimetric Assay-IC50 Determination
Compounds were diluted in DMSO at the concentration of 1 mM, then 50 μM and transferred to a 96-well plate for further dilutions (1:3 dilution, 11 points) in duplicate. Highest final concentration of compound in this CA-II Fluorimetric assay is 1 μM. Assays were conducted in a final volume of 100 μL in 50 mM Tris/HCl (pH 7.6), 100 mM Na2SO4 and 0.005% Tween-20 in a 96-well black assay plate. Fluorescein diacetate was used as the substrate. Enzyme inhibition was determined by pipetting 8 μL of human CA-II (5 nM, from Sigma-Aldrich, product #: C6165) into assay plate contained 2 μL of compound and 2 μL of substrate (10 μM) in 88 μL of assay buffer. The rate of the hydrolysis of fluorescein diacetate were measured spectrophometrically at 488 nm (excitation), 538 nm (emission) and 530 nm (cutoff) using a Molecular Devices SpectraMax M2 fluorescence reader at 25° C.

Where [1] appears, read: Kd ND, IC50 given instead, read-out: CA-II IC50 (where Kd is ND).
Setting [2] is: given instead of Kd (ND), read-out: CA-II IC50.

The structures appear in SMILES notation. Read-outs that look alike come from different tables or passages of the source.

Take `COc1cccc(CN(C)C(=O)c2nc(Cc3ccccc3)n(-c3ccc(S(N)(=O)=O)cc3)n2)c1` [Example R-103, 1-[4-(aminosulfonyl)phenyl]-5-benzyl-N-(3-methoxybenzyl)-N-methyl-1H-124-triazole-3-carboxamide]: the IC50 (usually the point on the concentration scale where inhibition reaches its midpoint) under setting [1] amounted to 3.12 nM.

As for `Cc1cc(CN(C)C(=O)c2nc(Cc3ccccc3)n(-c3ccc(S(N)(=O)=O)cc3)n2)n[nH]1` [Example R-50, 1-[4-(aminosulfonyl)phenyl]-5-benzyl-N-methyl-N-[(5-methyl-1H-pyrazol-3-yl)methyl]-1H-124-triazole-3-carboxamide], the inhibition at 0.01 µM came to 95%.

As for `CN(CCOc1ccccc1)C(=O)c1nc(Cc2ccccc2)n(-c2ccc(S(N)(=O)=O)cc2)n1` [Example R-42, 1-[4-(aminosulfonyl)phenyl]-5-benzyl-N-methyl-N-(2-phenoxyethyl)-1H-124-triazole-3-carboxamide], the inhibition at 0.1 µM worked out at 98%. In addition, the 50% inhibitory concentration (IC50) under setting [2] amounted to 3.78 nM.

For `CN(CC(C)(O)c1ccccc1)C(=O)c1nc(Cc2ccccc2)n(-c2ccc(S(N)(=O)=O)cc2)n1` (stereo not drawn) [Example R-54, 1-[4-(aminosulfonyl)phenyl]-5-benzyl-N-(2-hydroxy-2-phenylpropyl)-N-methyl-1H-124-triazole-3-carboxamide], the inhibition at 0.01 µM was 97%.

For the compound `CCc1ccc(CN(C)C(=O)c2nc(Cc3ccccc3)n(-c3ccc(S(N)(=O)=O)cc3)n2)cc1` [Example R-37, 1-[4-(aminosulfonyl)phenyl]-5-benzyl-N-(4-ethylbenzyl)-N-methyl-1H-124-triazole-3-carboxamide], the inhibition at 0.1 µM came out at 99%. For the same compound, the IC50 under setting [2] was determined as 2.89 nM.

As for `CN(Cc1n[nH]c2c1CCCC2)C(=O)c1nc(Cc2ccccc2)n(-c2ccc(S(N)(=O)=O)cc2)n1` [Example R-44, 1-[4-(aminosulfonyl)phenyl]-5-benzyl-N-methyl-N-(4567-tetrahydro-1H-indazol-3-ylmethyl)-1H-124-triazole-3-carboxamide], the inhibition at 0.01 µM worked out at 93%.

In the case of `NS(=O)(=O)c1ccc(-n2nc(C(=O)NCCNc3ccccn3)nc2Cc2ccccc2)cc1` [Example R-35, 1-[4-(aminosulfonyl)phenyl]-5-benzyl-N-[2-(pyridin-2-ylamino)ethyl]-1H-124-triazole-3-carboxamide], the inhibition at 0.1 µM was found to be 101%.

Turning to `C[C@@H]([C@@H](O)c1ccccc1)N(C)C(=O)c1nc(Cc2ccccc2)n(-c2ccc(S(N)(=O)=O)cc2)n1` [Example R-47, 1-[4-(aminosulfonyl)phenyl]-5-benzyl-N-[(1S2S)-2-hydroxy-1-methyl-2-phenylethyl]-N-methyl-1H-124-triazole-3-carboxamide], the inhibition at 0.01 µM stood at 90%.

As for `NS(=O)(=O)c1ccc(-n2nc(C(=O)N3CCCCC3Cc3ccccc3)nc2Cc2ccccc2)cc1` (stereo not drawn) [Example R-53, 4-(5-benzyl-3-[(2-benzylpiperidin-1-yl)carbonyl]-1H-124-triazol-1-yl)benzenesulfonamide], the inhibition at 0.01 µM is 92%. In addition, the IC50 under setting [2] stood at 3.36 nM.

Turning to `CCCN(CC1CCCO1)C(=O)c1nc(Cc2ccccc2)n(-c2ccc(S(N)(=O)=O)cc2)n1` (stereo not drawn) [Example R-95, 1-[4-(aminosulfonyl)phenyl]-5-benzyl-N-propyl-N-(tetrahydrofuran-2-ylmethyl)-1H-124-triazole-3-carboxamide], the IC50 under setting [1] was determined as 3.35 nM.

`CCCN(C(=O)c1nc(Cc2ccccc2)n(-c2ccc(S(N)(=O)=O)cc2)n1)[C@@H](C)CO` [Example R-29, 1-[4-(aminosulfonyl)phenyl]-5-benzyl-N-[(1S)-2-hydroxy-1-methylethyl]-N-propyl-1H-124-triazole-3-carboxamide]: the inhibition at 0.1 µM came to 98%.

Regarding `CC1(c2ccccc2)CN(C(=O)c2nc(Cc3ccccc3)n(-c3ccc(S(N)(=O)=O)cc3)n2)CCO1` (stereo not drawn) [Example R-46, 4-{5-benzyl-3-[(2-methyl-2-phenylmorpholin-4-yl)carbonyl]-1H-124-triazol-1-yl}benzenesulfonamide], the inhibition at 0.01 µM was 96%.

Regarding `CCN(Cc1ccccc1)C(=O)c1nc(Cc2ccccc2)n(-c2ccc(S(N)(=O)=O)cc2)n1` [Example R-102, 1-[4-(aminosulfonyl)phenyl]-N5-dibenzyl-N-ethyl-1H-124-triazole-3-carboxamide], the IC50 under setting [1] came to 3 nM.

Regarding `Cc1ccc(CN(C)C(=O)c2nc(Cc3ccccc3)n(-c3ccc(S(N)(=O)=O)cc3)n2)cc1` [Example R-38, 1-[4-(aminosulfonyl)phenyl]-5-benzyl-N-methyl-N-(4-methylbenzyl)-1H-124-triazole-3-carboxamide], the inhibition at 0.1 µM was 100%. The IC50 under setting [2] was 3.13 nM.

Regarding `CCN(CC)CCN(CC)C(=O)c1nc(Cc2ccccc2)n(-c2ccc(S(N)(=O)=O)cc2)n1` [Example R-39, 1-[4-(aminosulfonyl)phenyl]-5-benzyl-N-[2-(diethylamino)ethyl]-N-ethyl-1H-124-triazole-3-carboxamide], the inhibition at 0.1 µM turned out to be 97%. Further, the IC50 under setting [2] is 3.62 nM.

Consider `NS(=O)(=O)c1ccc(-n2nc(C(=O)N3CCc4ccccc4C3)nc2Cc2ccccc2)cc1` [Example R-52, 4-[5-benzyl-3-(34-dihydroisoqionolin-2(1H)-ylcarbonyl)-1H-124-triazol-1-yl]benzenesulfonamide], for which the inhibition at 0.01 µM came out at 96%. The IC50 under setting [2] came to 2.83 nM.

Consider `CN(Cc1ccccc1)C(=O)c1nc(Cc2ccccc2)n(-c2ccc(S(N)(=O)=O)cc2)n1` [Example R-109, 1-[4-(aminosulfonyl)phenyl]-N5-dibenzyl-N-methyl-1H-124-triazole-3-carboxamide], for which, under setting [1], the IC50 was determined as 3.61 nM.

As for `Cc1cc(CN(C)C(=O)c2nc(Cc3ccccc3)n(-c3ccc(S(N)(=O)=O)cc3)n2)on1` [Example R-64, 1-[4-(aminosulfonyl)phenyl]-5-benzyl-N-methyl-N-[(3-methylisoxazol-5-yl)methyl]-1H-124-triazole-3-carboxamide], the inhibition at 0.01 µM came out at 94%. Also, the IC50 under setting [2] came to 2.95 nM.

On to `CN(CC1CCCCO1)C(=O)c1nc(Cc2ccccc2)n(-c2ccc(S(N)(=O)=O)cc2)n1` (stereo not drawn) [Example R-106, 1-[4-(aminosulfonyl)phenyl]-5-benzyl-N-methyl-N-(tetrahydro-2H-pyran-2-ylmethyl)-1H-124-triazole-3-carboxamide], for which the IC50 under setting [1] came to 3.28 nM.

Regarding `Cc1ncsc1CCN(C)C(=O)c1nc(Cc2ccccc2)n(-c2ccc(S(N)(=O)=O)cc2)n1` [Example R-65, 1-[4-(aminosulfonyl)phenyl]-5-benzyl-N-methyl-N-[2-(4-methyl-13-thiazol-5-yl)ethyl]-1H-124-triazole-3-carboxamide], the inhibition at 0.01 µM was 90%.

`CC(C)CN(CC(C)C)C(=O)c1nc(Cc2ccccc2)n(-c2ccc(S(N)(=O)=O)cc2)n1` [Example R-40, 1-[4-(aminosulfonyl)phenyl]-5-benzyl-NN-diisobutyl-1H-124-triazole-3-carboxamide]: the inhibition at 0.1 µM came out at 98%. Also, the IC50 under setting [2] amounted to 3.34 nM.

With `NS(=O)(=O)c1ccc(-n2nc(C(=O)N3CCc4nocc4C3)nc2Cc2ccccc2)cc1` [Example R-57, 4-[5-benzyl-3-(67-dihydroisoxazolo[43-c]pyridin-5(4H)-ylcarbonyl)-1H-124-triazol-1-yl]benzenesulfonamide], the inhibition at 0.01 µM is 96%.

Values taken from patent publication US20100256357A1, “HETEROCYCLES USEFUL AS INHIBITORS OF CARBONIC ANHYDRASE” (Agouron Pharmaceuticals, Inc., priority 2006, published 2010).
